Data as given in patent publication US5635525A, “Benzimidazole derivatives as angiotensin II receptor antagonists, pharmacticals, and treatment of hypertension therewith” (Hoechst Aktiengesellschaft, priority 1991, dated 1997).
pIC50: −log10 of the molar value.

Molecular target: angiotensin II receptor
Assay: displacement of 125I- or 3H-angiotensin II from receptor preparations from various organs (liver, lung, adrenal gland, brain etc.)
Conditions: "according to the abovementioned process"; which of the two binding methods is not stated
Description: Bound and free radioligand are then separated by filtration through micro glass fiber filters (GF51, Schleicher & Schull) on a cell collector (SKATRON).
By measurement of the receptor-bund radioactivity on the filters by means of a beta spectrometer or gamma spectrometer, the degree of displacement of the radioligand from the receptor by the test compounds is determined.

| pIC50 | Compound |
| --- | --- |
| 7.11 | CCCCc1nc2cccc(C(=O)O)c2n1Cc1ccc2c(Cl)c(C(=O)O)sc2c1 [Example 1, 2-n-Butyl-1-[(2-carboxy-3-chlorobenzo[b]thiophen-6-yl)-methyl]-1H-benzimidazole-7-carboxylic acid] |
| 7.19 | CCCCc1nc2cccc(C(=O)O)c2n1Cc1ccn2c(C(=O)O)c(-c3ccccc3)nc2c1 [Example 2, 2-n-Butyl-1-[(3-carboxy-2-phenylimidazo[1,2-a]pyridin-7-yl)methyl]-1H-benzimidazole-7-carboxylic acid] |
| 6.83 | CCCCc1nc2cccc(C(=O)O)c2n1Cc1ccn2c(C(=O)O)c(-c3ccccc3)nc2n1 [Example 3, 2-n-Butyl-1-[(3-carboxy-2-phenylimidazo[1,2-a]pyrimidin-7-yl)methyl]-1H-benzimidazole-7-carboxylic acid] |
| 9.10 | C=CCOC(=O)N(C(=O)OCC=C)S(=O)(=O)c1ccccc1-c1ccc(Cn2c(CC)nc3c(C)cc(C)nc32)cc1 [Example 15] |
| 9.13 | CCCCc1nc2cccc(C(=O)O)c2n1Cc1ccc(-c2ccccc2S(=O)(=O)NC(=O)OCC)cc1 [Example 19, 2-n-Butyl-1-[(2'-ethoxycarbonylaminosulfonylbiphenyl-4-yl)methyl]-1H-benzimidazole-7-carboxylic acid] |
| 9.32 | CCNC(=O)NS(=O)(=O)c1ccccc1-c1ccc(Cn2c(CC)nc3c(C)ccnc32)cc1 [Example 31, 2-Ethyl-3-[(2'-ethylaminocarbonylaminosulfonylbiphenyl-4-yl)methyl]-7-methyl-imidazo[4,5-b]pyridine] |
| 8.74 | CCCNC(=O)NS(=O)(=O)c1ccccc1-c1ccc(Cn2c(CC)nc3c(C)cc(C)nc32)cc1 [Example 51] |

| Compound | pIC50 |
| --- | --- |
| 2-n-Butyl-3-[(2'-allylaminocarbonylaminosulfonylbiphenyl-4-yl)-methyl]-3H-imidazo-[4,5-b]/[5,4-b]pyridine [Example 27] | 8.96 |
